The source of these data is PMC3265359 (Biochemical Journal, 2010).

Like-named read-outs stand apart in the source and are kept apart here.

Usually IC50 stands for the point on the concentration scale where inhibition reaches its midpoint. Broadly, the Ki is the equilibrium dissociation constant of an inhibitor or competing ligand from its target.

The subject of one series is QR1. Description: Effect of resveratrol on QR1 activity in Hepa 1c1c7 cells. The format is cell-based. The settings on record: Hepa 1c1c7 mouse hepatoma cells, 48 h.
The target in a further series is T1, SIRT1 (Homo sapiens, UniProt Q96EB6).
T1 sequence (Q96EB6 1-747): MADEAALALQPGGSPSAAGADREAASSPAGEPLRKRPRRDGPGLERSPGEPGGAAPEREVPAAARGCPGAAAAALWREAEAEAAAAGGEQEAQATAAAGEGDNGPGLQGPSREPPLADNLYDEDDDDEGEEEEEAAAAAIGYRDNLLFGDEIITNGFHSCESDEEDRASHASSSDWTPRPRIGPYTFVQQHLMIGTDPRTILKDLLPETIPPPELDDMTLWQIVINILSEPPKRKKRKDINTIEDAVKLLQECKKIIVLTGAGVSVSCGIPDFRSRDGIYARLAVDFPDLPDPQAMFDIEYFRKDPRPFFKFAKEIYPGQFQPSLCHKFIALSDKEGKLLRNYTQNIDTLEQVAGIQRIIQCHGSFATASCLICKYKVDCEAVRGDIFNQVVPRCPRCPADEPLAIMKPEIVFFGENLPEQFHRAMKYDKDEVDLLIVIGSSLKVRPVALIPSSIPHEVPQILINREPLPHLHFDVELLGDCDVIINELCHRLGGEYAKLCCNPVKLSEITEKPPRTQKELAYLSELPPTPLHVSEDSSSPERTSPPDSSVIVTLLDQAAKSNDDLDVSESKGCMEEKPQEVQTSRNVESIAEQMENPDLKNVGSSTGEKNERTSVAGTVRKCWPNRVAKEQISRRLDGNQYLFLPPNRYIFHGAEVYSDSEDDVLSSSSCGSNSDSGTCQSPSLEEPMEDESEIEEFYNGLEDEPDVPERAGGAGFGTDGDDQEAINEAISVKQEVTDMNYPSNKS
Kind of series: ITC titration of resveratrol into SIRT1. The format is binding. Particulars: 20 μM SIRT1, no substrates. For orientation: ITC needs no label: the signal is the heat of the interaction.

The target in another series is T2, COX-1 (Ovis aries, UniProt P05979).
T2 sequence (P05979 25-600): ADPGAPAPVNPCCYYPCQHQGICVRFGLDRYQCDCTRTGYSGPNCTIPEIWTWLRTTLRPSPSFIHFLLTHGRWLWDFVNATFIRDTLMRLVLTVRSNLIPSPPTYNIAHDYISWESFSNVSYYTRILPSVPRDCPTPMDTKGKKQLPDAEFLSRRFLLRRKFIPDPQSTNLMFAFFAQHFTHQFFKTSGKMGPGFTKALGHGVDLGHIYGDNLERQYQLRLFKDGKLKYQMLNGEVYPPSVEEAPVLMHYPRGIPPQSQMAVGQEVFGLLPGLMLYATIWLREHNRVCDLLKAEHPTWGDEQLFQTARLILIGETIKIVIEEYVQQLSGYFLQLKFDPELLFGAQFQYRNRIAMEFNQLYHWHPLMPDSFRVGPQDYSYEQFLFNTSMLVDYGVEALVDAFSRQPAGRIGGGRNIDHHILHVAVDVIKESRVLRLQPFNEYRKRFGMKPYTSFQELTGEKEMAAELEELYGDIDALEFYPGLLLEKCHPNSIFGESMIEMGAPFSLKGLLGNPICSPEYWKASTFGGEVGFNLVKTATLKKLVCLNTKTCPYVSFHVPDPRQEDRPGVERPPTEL
Description: Inhibition of COX-1 activity by quantification of PGE2. The format is biochemical.

The target of series [1] is T3, QR2 (Homo sapiens, UniProt P16083).
T3 sequence (P16083 1-231): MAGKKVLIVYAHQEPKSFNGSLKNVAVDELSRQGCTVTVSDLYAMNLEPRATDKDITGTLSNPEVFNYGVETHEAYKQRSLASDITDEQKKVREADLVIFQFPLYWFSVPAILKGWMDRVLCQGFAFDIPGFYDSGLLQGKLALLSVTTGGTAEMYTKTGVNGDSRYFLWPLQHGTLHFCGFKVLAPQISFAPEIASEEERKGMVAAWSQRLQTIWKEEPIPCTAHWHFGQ
Kind of series: QR2 steady-state kinetics. The series is classed as biochemical. Particulars: for Ki: read-out: QR2 Ki, Table 1 value; for Inhibition of QR2: up to 100 μM compound, 5 nM QR2, 100 μM NMeH, 30 μM menadione.

Series [2] addresses T3, QR2. Kind of series: ITC titration of resveratrol into QR2. The series is classed as binding.
The conditions of series [3]: after an oral dose of pure resveratrol; cited from earlier work.
Another series concerns the target T4, COX-2 (Homo sapiens, UniProt P35354).
T4 sequence (P35354 18-604): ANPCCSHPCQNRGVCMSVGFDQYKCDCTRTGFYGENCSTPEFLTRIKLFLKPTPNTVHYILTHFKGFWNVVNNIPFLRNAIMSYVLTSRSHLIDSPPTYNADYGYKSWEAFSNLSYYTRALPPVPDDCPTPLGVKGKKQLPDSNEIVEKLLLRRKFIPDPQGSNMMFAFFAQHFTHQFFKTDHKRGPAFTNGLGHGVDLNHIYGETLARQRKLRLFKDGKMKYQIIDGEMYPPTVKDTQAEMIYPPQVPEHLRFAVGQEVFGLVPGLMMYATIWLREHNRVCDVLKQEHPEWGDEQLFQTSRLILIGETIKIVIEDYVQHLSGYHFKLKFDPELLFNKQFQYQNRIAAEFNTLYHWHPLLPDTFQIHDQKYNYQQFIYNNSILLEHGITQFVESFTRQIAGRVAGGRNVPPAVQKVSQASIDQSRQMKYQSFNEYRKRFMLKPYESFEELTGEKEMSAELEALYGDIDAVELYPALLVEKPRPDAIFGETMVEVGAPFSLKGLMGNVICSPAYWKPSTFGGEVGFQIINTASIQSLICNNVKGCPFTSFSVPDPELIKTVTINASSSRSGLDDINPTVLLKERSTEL
Kind of series: Inhibition of COX-2 activity by quantification of PGE2. The format is biochemical.

As to `Oc1ccc(/C=C/c2cc(O)cc(O)c2)cc1` [Resveratrol, 3,5, 4′-trans-trihydroxystilbene], the “Effect on QR1 activity” value with QR1 is “only a weak activator”. On SIRT1, the “Binding to SIRT1 by ITC” value is listed as “no detectable change in heat”. For the same compound, at COX-1, half-maximal inhibition (IC50) was put at 1.1 ± 0.44 µM. At QR2 [1] (varied menadione, NMeH 100 μM), the “QR2 Ki, uncompetitive against menadione” value worked out at 0.9 ± 0.1 µM. Moreover, the “ΔH of binding to QR2” value on QR2 [2] is recorded as “–14 kcal/mol”. Besides, the “TΔS of binding to QR2” value at QR2 [2] (as printed in Figure 6 legend) is recorded as 3.9 kcal/mol. Also, the “N (ITC binding stoichiometry, QR2)” value on QR2 [2] (single binding site model) came to 0.9.
For `O=S(=O)(O)Oc1ccc(C=Cc2cc(O)cc(O)c2)cc1` [Resveratrol-4′-O-sulfate, resveratrol-4′-O-sulfate], the Human plasma concentration in series [3] was 2 to 10 µM. This compound also returned a half-maximal inhibitory concentration (IC50) against COX-1 of 5.1 ± 0.55 µM. For the same compound, at QR2 [1], the Ki was over 100 µM and the “Inhibition of QR2” value is listed as “cannot detect any inhibitory activity”. At COX-2, the IC50 stood at 2.5 ± 0.35 µM.
For the compound `O=S(=O)(O)Oc1cc(O)cc(C=Cc2ccc(O)cc2)c1` [Resveratrol-3-O-sulfate, resveratrol-3-O-sulfate], half-maximal inhibition against COX-1 (IC50) required 68 ± 2.8 µM. In addition, on QR2 [1], the Ki is over 100 µM and the “Inhibition of QR2” value is on record as “cannot detect any inhibitory activity”. For the same compound, at COX-2, the IC50 is over 300 µM.
`O=C(O)[C@H]1O[C@@H](Oc2cc(O)cc(/C=C/c3ccc(O)cc3)c2)[C@H](O)[C@@H](O)[C@@H]1O` [Resveratrol-3-O-glucuronide, resveratrol-3-O-glucuronide]: the IC50 on COX-1 (read-out: COX-1 IC50, PGE2 produced from arachidonic acid) was 150 ± 5.8 µM.
